Data: article PMC9685055, “Biological activity of new bioactive steroids deriving from biotransformation of cortisone” (Microbial Cell Factories, 2022)

Experiments:
[1] = target: T1, human glucocorticoid receptor (NR3C1) (Homo sapiens, UniProt P04150); assay: Glucocorticoid receptor transactivation reporter assay; assay type: cell-based; conditions: 10 µM, 24 h, luciferase reporter cells
T1 construct: constitutive high-level expression of full length, unmodified human glucocorticoid receptor (NR3C1)
T1 sequence (P04150 1-777): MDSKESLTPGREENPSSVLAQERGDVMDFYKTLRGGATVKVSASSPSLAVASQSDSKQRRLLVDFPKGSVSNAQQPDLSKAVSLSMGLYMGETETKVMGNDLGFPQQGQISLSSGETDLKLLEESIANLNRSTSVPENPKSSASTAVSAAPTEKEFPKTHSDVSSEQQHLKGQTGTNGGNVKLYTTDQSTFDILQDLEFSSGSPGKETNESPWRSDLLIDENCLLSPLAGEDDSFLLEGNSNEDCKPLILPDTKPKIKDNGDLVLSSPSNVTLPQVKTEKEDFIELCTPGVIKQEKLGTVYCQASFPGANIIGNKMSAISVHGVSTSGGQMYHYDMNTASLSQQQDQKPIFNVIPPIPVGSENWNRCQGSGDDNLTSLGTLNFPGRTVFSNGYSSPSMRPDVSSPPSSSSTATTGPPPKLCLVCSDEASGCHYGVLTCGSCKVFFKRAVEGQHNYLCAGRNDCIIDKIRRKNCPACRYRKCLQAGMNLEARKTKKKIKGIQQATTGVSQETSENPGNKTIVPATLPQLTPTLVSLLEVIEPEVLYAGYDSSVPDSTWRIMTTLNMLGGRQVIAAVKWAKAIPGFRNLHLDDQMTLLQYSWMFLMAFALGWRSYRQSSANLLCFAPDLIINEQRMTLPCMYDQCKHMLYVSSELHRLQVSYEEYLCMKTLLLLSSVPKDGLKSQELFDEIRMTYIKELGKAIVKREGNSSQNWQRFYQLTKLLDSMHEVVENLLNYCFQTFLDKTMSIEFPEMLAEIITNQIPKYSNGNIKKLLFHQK
Method: Glucocorticoid receptor transactivation assays kit was obtained from Indigo Biosciences (Human Glucocorticoid Receptor Reporter Assay Kit, Product #IB0020-32; Indigo Biosciences, State College, PA, USA) and was utilized to assess the activation of human glucocorticoid receptor by SCA and/or SCB. Briefly, stocks of the tested compounds were prepared and diluted in a medium provided by the manufacturer. Frozen reporter cells provided in the assay kit were thawed and compound dilutions were added immediately. Cells were incubated for 24 h and the activation response was measured on a luminometer (Perkin-Elmer, MA, USA). The cells consisted of non-human mammalian cells engineered by Indigo Biosciences to provide constitutive high-level expression of full length, unmodified human glucocorticoid receptor (NR3C1). The nonhuman mammalian reporter cells included a luciferase reporter gene functionally linked to a human glucocorticoid receptor-responsive promoter. The cells are engineered so that only interactions with the human receptor will induce luciferase expression in the treated reporter cells to quantitate nuclear receptor activation. Positive control ligand performance was measured by the manufacturer and provided in the technical manuals thus allowing accurate comparison for assay performance. […]

[2] = system: Salmonella typhimurium TA100; assay: Ames test (plate incorporation), strain TA100; assay type: cell-based
Method: Mutagenicity assay was performed following the plate incorporation method with the histidine-requiring Salmonella typhimurium mutant TA98 and TA100 strains. All strains (100 µl per plate of fresh overnight cultures) were checked with and without the addition of 0.5 mL of a 5% S9 exogenous metabolic activator (S9 mix). The lyophilized post-mitochondrial supernatant S9 mix (Aroclor 1254-induced, Sprague–Dawley male rat liver in 0.154 M KCl solution, Molecular Toxicology, Inc., Boone, NC, USA), commonly used for the activation of pro-mutagens to mutagenic metabolites, was stored at− 80 °C before use. The concentration tested for all the samples were 1, 5, 10, 50, 100 µL/plate of a stock solution 100 mg/mL.
A fully-grown culture of the appropriate tester strain (0.1 mL) was added to 2 mL Molten Top Agar (0.6% agar, 0.6% NaCl, 0.5 mM L-histidine/biotin solution) at 46 °C, together with 0.1 mL of each sample solution at different concentrations, and 0.5 mL S9 mix for assays with metabolic activation or 0.5 mL of phosphate buffer pH 7.4 to test without metabolic activation. The ingredients were thoroughly mixed and poured onto minimal glucose agar plates (1.5% agar in 2% Vogel–Bonner medium E with 5% glucose solution).
DMSO was used as a negative control (100 µl/plate). Positive controls were prepared as follows: 2-aminoanthracene (2 µg/plate) and 2-nitrofluorene (2 µg/plate) for TA98 with and without metabolic activator (S9 mix) respectively; 2-aminoanthracene (2 µg/plate) and sodium azide (2 µg/plate) for TA100, with and without metabolic activator (S9 mix) respectively. The plates were incubated at 37 °C for 72 h and then the his^+ revertants were checked and counted using a Colony Counter 560 Suntex (Antibioticos, Italy). A sample was considered mutagenic when the observed number of colonies was at least twofold over the spontaneous level of revertants. All determinations were made in triplicate. Relative standard deviations were computed using the statistical software […] 6.0 (StatSoft Italia srl).

[3] = TA100, + S9, 1 µL/plate of a stock solution 100 mg/mL
[4] = TA100, + S9, 5 µL/plate of a stock solution 100 mg/mL
[5] = TA100, + S9, 10 µL/plate of a stock solution 100 mg/mL
[6] = TA100, + S9, 50 µL/plate of a stock solution 100 mg/mL
[7] = TA100, + S9, 100 µL/plate of a stock solution 100 mg/mL
[8] = TA100, − S9, 1 µL/plate of a stock solution 100 mg/mL
[9] = TA100, − S9, 5 µL/plate of a stock solution 100 mg/mL
[10] = TA100, − S9, 10 µL/plate of a stock solution 100 mg/mL
[11] = TA100, − S9, 50 µL/plate of a stock solution 100 mg/mL
[12] = TA100, − S9, 100 µL/plate of a stock solution 100 mg/mL

Row | Structure (SMILES) | glucocorticoid receptor activation [1] | genotoxic activity (Ames test) [2] | average number of revertant colonies [2, 3] | t/c (revertant colonies in treated plates/untreated plates) [2, 3] | average number of revertant colonies [2, 4] | t/c (revertant colonies in treated plates/untreated plates) [2, 4] | average number of revertant colonies [2, 5] | t/c (revertant colonies in treated plates/untreated plates) [2, 5] | average number of revertant colonies [2, 6] | t/c (revertant colonies in treated plates/untreated plates) [2, 6] | average number of revertant colonies [2, 7] | t/c (revertant colonies in treated plates/untreated plates) [2, 7] | average number of revertant colonies [2, 8] | t/c (revertant colonies in treated plates/untreated plates) [2, 8] | average number of revertant colonies [2, 9] | t/c (revertant colonies in treated plates/untreated plates) [2, 9] | average number of revertant colonies [2, 10] | t/c (revertant colonies in treated plates/untreated plates) [2, 10] | average number of revertant colonies [2, 11] | t/c (revertant colonies in treated plates/untreated plates) [2, 11] | other results
1 | Cc1ccc(O)c2c1CCC1C3CC[C@](O)(C(=O)CO)[C@@]3(C)CC(=O)[C@@]21O (stereo partly drawn) [SCA, 1,9β,17,21‐tetrahydoxy‐4‐methyl‐19‐nor‐9β‐pregna‐1,3,5(10)‐trien‐11,20‐dione] | activated glucocorticoid receptors | For none of the samples genotoxic activity emerged | 179.3 | 1.0 | 181.7 | 1.0 | 185.3 | 1.0 | 205.7 | 1.1 | 194.3 | 1.1 | 163.0 | 1.0 | 164.3 | 1.0 | 158.0 | 1.0 | 157.0 | 0.9 | average number of revertant colonies [2, 12]: 166.7; t/c (revertant colonies in treated plates/untreated plates) [2, 12]: 1.0
2 | Cc1ccc(O)c2c1CCC1C3CC[C@](O)([C@H](O)CO)[C@@]3(C)CC(=O)[C@@]21O (stereo partly drawn) [SCB, 1,9β,17,20β,21‐ pentahydoxy‐4‐methyl‐19‐nor‐9β‐pregna‐1,3,5(10)‐trien‐11‐one] | activated glucocorticoid receptors | For none of the samples genotoxic activity emerged | 190 | 1.0 | 194 | 1.0 | 193 | 1.0 | 189 | 1.0 | 195 | 1.0 | 157 | 0.9 | 169 | 1.0 | 164 | 1.0 | 169 | 1.0 | average number of revertant colonies [2, 12]: 180; t/c (revertant colonies in treated plates/untreated plates) [2, 12]: 1.1
